Data taken from US8278293B2, “Diazo bicyclic Smac mimetics and the uses thereof” (The Regents of the University of Michigan, priority 2007, dated 2012).
Like-named read-outs stand apart in the source and are kept apart here. Square brackets hold non-standard residues; d marks the D form. Peptide text beside a SMILES is read from it. * marks the point of attachment. 5FAM = O=C1OC2(c3ccc(O)cc3Oc3cc(O)ccc32)c2ccc(C(=O)*)cc21; Abu = CC[C@H](N)C(=O)O

Legend:
cIAP1 BIR3 domain = target: T1, cIAP1 BIR3 domain (Homo sapiens, UniProt Q13490); assay: FP competitive binding assay to cIAP1 BIR3; details: FP tracer; read-out: affinity of tracer for cIAP1
T1 construct: cIAP1 BIR3 domain (residues 253-363); His-tag
T1 sequence (Q13490 253-363): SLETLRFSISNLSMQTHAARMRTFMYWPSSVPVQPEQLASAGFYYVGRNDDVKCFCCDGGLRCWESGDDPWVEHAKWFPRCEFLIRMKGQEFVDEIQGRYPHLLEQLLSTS

cIAP2 BIR3 domain = target: T2, cIAP2 BIR3 domain (Homo sapiens, UniProt Q13489); assay: FP competitive binding assay to cIAP2 BIR3; details: FP tracer; read-out: affinity of tracer for cIAP2
T2 construct: cIAP2 BIR3 domain (residues 238-349); His-tag
T2 sequence (Q13489 238-349): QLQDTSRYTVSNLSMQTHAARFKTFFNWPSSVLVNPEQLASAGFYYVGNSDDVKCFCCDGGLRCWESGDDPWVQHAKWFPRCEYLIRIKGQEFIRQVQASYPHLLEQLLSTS

ML-IAP BIR3 domain = target: T3, ML-IAP BIR3 domain (Homo sapiens, UniProt Q96CA5); assay: FP competitive binding assay to ML-IAP BIR3; details: FP tracer; read-out: affinity of tracer for ML-IAP
T3 construct: ML-IAP BIR3 domain (residues 63-179), fused to a His-tag; His-tag
T3 sequence (Q96CA5 63-179): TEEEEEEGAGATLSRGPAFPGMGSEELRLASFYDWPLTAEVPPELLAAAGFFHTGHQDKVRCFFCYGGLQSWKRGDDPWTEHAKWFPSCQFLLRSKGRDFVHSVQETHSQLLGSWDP
Protocol: In order to test the binding ability of conformationally constrained Smac mimetics to other IAP proteins (ML-IAP, cIAP1, and cIAP2) binding assay conditions were developed and optimized. The recombinant cIAP1 BIR3 domain (residues 253-363), cIAP2 BIR3 domain (residues 238-349), and ML-IAP BIR3 domain (residues 63-179), fused to a His-tag, were used in the binding assays. Competitive binding assays for other IAP proteins were performed similarly as that described for XIAP BIR3. […] The following protein concentration and tracer were used in the competitive assay: 10 nM cIAP1 and 2 nM SM5F, 25 nM cIAP2 and 2 nM SM5F, 300 nM ML-IAP and 5 nM SM5F
The competitive binding curves of SM-406 and SM-428 to BIR^3 domains of four members of IAP proteins were determined using a fluorescence-polarization-based binding assay. The IAP proteins tested include: (A) XIAP; (B) cIAP1; (C) cIAP2; (D) ML-IAP.

[1] = system: MDA-MB-231 human breast cancer cell line; assay: Cell growth inhibition, WST-8 assay, MDA-MB-231; format: cell-based; details: for IC50: Homo sapiens, MDA-MB-231, 96 h; for cellular activity in MDA-MB-231 compared with SM-122: relative to SM-122
Protocol: (§1) The effect of the compounds of the present invention on the growth of various cancer cell lines was tested. Cells were seeded in 96-well flat bottom cell culture plates at a density of 3000 cells/well with a tested compound and incubated at 37° C. in an atmosphere of 95% air and 5% CO2 for 4 days. […] Dojindo Molecular Technologies, Inc., Gaithersburg, Md.). […] The absorbance of the samples was measured at 450 nm using a ULTRA Tecan Reader (Molecular Device). […] The ability of SM-406 to inhibit cell growth as a single agent was tested in the MDA-MB-231 breast cancer cell line, SK-OV-3 and OVCAR-4 ovarian cancer cell lines and SK-MeI-2 melanoma cancer cell line. Cells were treated for 4 days. Cell growth was determined using a WST-based assay.

[2] = system: SK-OV-3 ovarian cancer cell line; assay: Cell growth inhibition, WST-8 assay, SK-OV-3; format: cell-based; details: for IC50: Homo sapiens, SK-OV-3, 96 h; for cellular activity in SK-OV-3 compared with SM-122: relative to SM-122
Protocol: as §1

[3] = system: breast cancer MDA-MB-231 cell line; assay: Induction of cell death, trypan blue exclusion, MDA-MB-231; format: cell-based
Protocol: (§2) The ability of YP-337 to induce cell death was tested in the breast cancer MDA-MB-231 and ovarian cancer SK-OV-3 cell lines (Table 4). Cells were treated with YP-337 for 48 hours and cell viability was determined using the trypan blue exclusion assay.

[4] = system: ovarian cancer SK-OV-3 cell line; assay: Induction of cell death, trypan blue exclusion, SK-OV-3; format: cell-based
Protocol: as §2

[5] = system: SK-Mel-2 melanoma cancer cell line; assay: Cell growth inhibition, WST-based assay, SK-Mel-2; details: Homo sapiens, SK-MEL-2, 96 h; single agent, 4 days, FIG. 8
Protocol: (§3) The ability of SM-406 to inhibit cell growth as a single agent was tested in the MDA-MB-231 breast cancer cell line, SK-OV-3 and OVCAR-4 ovarian cancer cell lines and SK-MeI-2 melanoma cancer cell line. Cells were treated for 4 days. Cell growth was determined using a WST-based assay.

[6] = system: OVCAR-4 ovarian cancer cell line; assay: Cell growth inhibition, WST-based assay, OVCAR-4; details: Homo sapiens, OVCAR-4, 96 h; single agent, 4 days, FIG. 8
Protocol: as §3

HL-60 leukemia cell line = assay: Cell growth inhibition, WST-based assay, HL-60; details: Homo sapiens, HL-60, 96 h; single agent, 4 days, FIG. 9
Protocol: (§4) The ability of SM-406 to inhibit cell growth as a single agent was tested in the HL-60 and SR leukemia cell lines. Cells were treated for 4 days. Cell growth was determined using a WST-based assay.

SR leukemia cell line = assay: Cell growth inhibition, WST-based assay, SR; details: 96 h; single agent, 4 days, FIG. 9
Protocol: as §4

[7] = system: MDA-MB-231 breast cancer xenograft; assay: MDA-MB-231 breast cancer xenograft model in nude mice; format: in vivo
Protocol: The ability of SM-406 (AT-406) to act as anti-tumor agent was tested in the MDA-MB-231 breast cancer xenograft (nude mice) model. SM-406 (AT-406) was administered qd×5 per week for two weeks. […] Body weight loss was less in weekly dosing (<5%) compared to the other dosing schedules.

XIAP BIR3 [8] = target: T4, XIAP BIR3 (Homo sapiens, UniProt P98170); assay: Fluorescence polarization (FP) based competitive binding assay to XIAP BIR3; set-up: human XIAP (residues 241-356) fused to His-tag; His-tag; details: for IC50: FP binding, XIAP BIR3 30 nM, SM5F 5 nM; for binding affinity to XIAP BIR3 compared with SM-122: relative to carbocyclic analog SM-122
Target sequence in this assay (P98170 241-356): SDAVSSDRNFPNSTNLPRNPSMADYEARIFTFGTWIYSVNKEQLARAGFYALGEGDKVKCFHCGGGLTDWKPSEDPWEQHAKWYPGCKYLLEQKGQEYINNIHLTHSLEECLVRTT

XIAP BIR3 [9] = target: T4, XIAP BIR3; details: background statement; cited from earlier work
Target sequence in this assay (P98170 241-356 limits assumed): as the sequence (P98170 241-356) above

[10] = 4 days, WST-8, read-out: MDA-MB-231 IC50
[11] = 4 days, WST-8, read-out: SK-OV-3 IC50

## CC[C@H](N)C(=O)N[C@@H](CCCNC(=N)N)C(=O)N1CCC[C@H]1C(=O)N[C@@H](Cc1ccccc1)C(=O)N[C@@H](CCCCNC(=O)c1ccc2c(c1)C(=O)OC21c2ccc(O)cc2Oc2cc(O)ccc21)C(N)=O [SM5F, AbuRPF-K-(5-Fam)-NH2] (H-[Abu]RPFK(5FAM)-NH2; N-terminus assumed)
cIAP1 BIR3 domain
  Kd: 4.1 nM
cIAP2 BIR3 domain
  Kd: 6.6 nM
ML-IAP BIR3 domain
  Kd: 160 nM

## CN[C@@H](C)C(=O)N[C@H]1CN(C(=O)Cc2ccccc2)CC[C@H]2CC[C@@H](C(=O)NC(c3ccccc3)c3ccccc3)N2C1=O [SM-337]
[1]; read-out: MDA-MB-231 IC50 (μM)
  IC50: < 1 µM
[1]
  cellular activity in MDA-MB-231 compared with SM-122: equal to or better than that of SM-122
[2]; read-out: SK-OV-3 IC50 (μM)
  IC50: < 1 µM
[2]
  cellular activity in SK-OV-3 compared with SM-122: equal to or better than that of SM-122
[3]; 0.1 nM
  Approximate % of dead cells after 48 h, MDA-MB-231: ~10%
[3]; 1 nM
  Approximate % of dead cells after 48 h, MDA-MB-231: ~35%
[3]; 10 nM
  Approximate % of dead cells after 48 h, MDA-MB-231: ~60%
[3]; 100 nM
  Approximate % of dead cells after 48 h, MDA-MB-231: ~75%
[4]; 0.1 nM
  Approximate % of dead cells after 48 h, SK-OV-3: ~20%
[4]; 1 nM
  Approximate % of dead cells after 48 h, SK-OV-3: ~40%
[4]; 10 nM
  Approximate % of dead cells after 48 h, SK-OV-3: ~65%
[4]; 100 nM
  Approximate % of dead cells after 48 h, SK-OV-3: ~75%

## CN[C@@H](C)C(=O)N[C@H]1CN(C(=O)CC(C)C)CC[C@H]2CC[C@@H](C(=O)NC(c3ccccc3)c3ccccc3)N2C1=O [SM-406]
[1]; [10]
  IC50: < 1 µM
[1]; single agent, 4 days, FIG. 8, read-out: IC50, cell growth, MDA-MB-231
  IC50: 0.082 µM
[2]; [11]
  IC50: < 1 µM
[2]; single agent, 4 days, FIG. 8, read-out: IC50, cell growth, SK-OV-3
  IC50: 0.238 µM
[5]
  IC50: 6640 nM
[6]
  IC50: 926 nM
HL-60 leukemia cell line
  IC50: 58 nM
SR leukemia cell line
  IC50: 7290 nM
[7]; 200 mg/kg, weekly dosing
  body weight loss: < 5%
[7]; 100 and 200 mg/kg, qd×5 per week for two weeks
  dose-dependent weight loss: up to 11%
XIAP BIR3 [8]
  IC50: < 100 nM

## CN[C@@H](C)C(=O)N[C@H]1CN(C(=O)CC(C)C)CC[C@H]2CC[C@@H](C(=O)N[C@@H]3CCCc4ccccc43)N2C1=O [SM-427]
[1]; [10]
  IC50: < 1 µM
[2]; [11]
  IC50: < 1 µM
XIAP BIR3 [8]
  IC50: < 1000 nM

## CN[C@@H](C)C(=O)N[C@H]1CN(C(=O)CC(C)C)CC[C@H]2CC[C@@H](C(=O)NCc3cccc(-c4ccccc4)c3)N2C1=O [SM-429]
[1]; [10]
  IC50: < 10 µM
[2]; [11]
  IC50: < 10 µM
XIAP BIR3 [8]
  IC50: < 1000 nM

## CN[C@@H](C)C(=O)N[C@H]1CN(C(=O)CC(C)C)CC[C@H]2CC[C@@H](C(=O)NCc3cccc4ccccc34)N2C1=O [SM-430]
[1]; [10]
  IC50: < 10 µM
[2]; [11]
  IC50: < 10 µM
XIAP BIR3 [8]
  IC50: < 1000 nM

## CN[C@@H](C)C(=O)N[C@H]1CN(C(=O)CC(C)C)CC[C@H]2CC[C@@H](C(=O)NC3CCc4ccccc43)N2C1=O (some centres unmarked) [SM-431]
[1]; [10]
  IC50: < 1 µM
[2]; [11]
  IC50: < 1 µM
XIAP BIR3 [8]
  IC50: < 1000 nM

## CN[C@@H](C)C(=O)N[C@H]1CN(C(=O)CC(C)C)CC[C@H]2CC[C@@H](C(=O)NCC(c3ccccc3)c3ccccc3)N2C1=O [SM-432]
[1]; [10]
  IC50: < 10 µM
[2]; [11]
  IC50: < 10 µM
XIAP BIR3 [8]
  IC50: < 1000 nM

## CN[C@@H](C)C(=O)N[C@H]1CN(C(=O)CC(C)C)CC[C@H]2CC[C@@H](C(=O)NCc3ccccc3-c3ccccc3)N2C1=O [SM-433]
[1]; [10]
  IC50: < 10 µM
[2]; [11]
  IC50: < 10 µM
XIAP BIR3 [8]
  IC50: < 1000 nM

## CN[C@@H](C)C(=O)N[C@H]1CN(C(=O)CC(C)C)CC[C@H]2CC[C@@H](C(=O)NCc3ccc(-c4ccccc4)cc3)N2C1=O [SM-434]
[1]; [10]
  IC50: < 10 µM
[2]; [11]
  IC50: < 10 µM
XIAP BIR3 [8]
  IC50: < 10000 nM

## CN[C@@H](C)C(=O)N[C@H]1CN(C)CC[C@H]2CC[C@@H](C(=O)NC(c3ccccc3)c3ccccc3)N2C1=O [YP-245P3]
[1]; read-out: MDA-MB-231 IC50 (μM)
  IC50: > 1 µM
[1]
  cellular activity in MDA-MB-231 compared with SM-122: less than that of SM-122
[2]
  cellular activity in SK-OV-3 compared with SM-122: less than that of SM-122
XIAP BIR3 [8]
  binding affinity to XIAP BIR3 compared with SM-122: less than that of SM-122

## CN[C@@H](C)C(=O)N[C@H]1CN(Cc2ccccc2)CC[C@H]2CC[C@@H](C(=O)NC(c3ccccc3)c3ccccc3)N2C1=O [YP-246P]
[1]; read-out: MDA-MB-231 IC50 (μM)
  IC50: > 1 µM
[1]
  cellular activity in MDA-MB-231 compared with SM-122: less than that of SM-122
[2]
  cellular activity in SK-OV-3 compared with SM-122: less than that of SM-122
XIAP BIR3 [8]
  binding affinity to XIAP BIR3 compared with SM-122: less than that of SM-122

B1: mature Smac protein: mature Smac/DIABLO polypeptide, endogenous inhibitor of XIAP (protein, UniProt Q9NR28 22-239, looked up)
Diablo IAP-binding …: LCVPVVANFKKRCFSELIRPWHKTVTIGFGVTLCAVPIAQKSEPHSLSSEALMRRAVSLVTDSTSTFLSQTTYALIEAITEYTKAVYTLTSLYRQYTSLLGKMNSEEEDEVWQVIIGARAEMTSKHQEYLKLETTWMTAVGLSEMAAEAAYQTGADQASITARNHIQLVKLQVEEVHQLSRKAETKLAEAQIEELRQKTQEEGEERAESEQEAYLRED
XIAP BIR3 [9]
  Kd: 420 nM
